Data reported in publication PMC5620620, “Comparison of In Vitro Assays in Selecting Radiotracers for In Vivo P-Glycoprotein PET Imaging” (Pharmaceuticals, 2017).

What was measured:
[1] = biological target: T1, P-gp (Homo sapiens, UniProt P08183); assay: Bidirectional transport of tritiated compounds in MDCKII-MDR1 cells; assay type: in vitro ADME; conditions: for Substrate In Vitro: ER 0.01 µM; for P-gp substrate behaviour in vitro: concentrations 0.01-50 µM and inhibitors; for ER 0.01 µM: tritiated compound 0.01 µM, Papp B→A/Papp A→B; for Recovery of radioactivity: all experiments, A → B and B → A directions
T1 construct: host or cells: MDCKII (canine kidney) cells transfected with human MDR1 cDNA
T1 sequence (P08183 whole entry): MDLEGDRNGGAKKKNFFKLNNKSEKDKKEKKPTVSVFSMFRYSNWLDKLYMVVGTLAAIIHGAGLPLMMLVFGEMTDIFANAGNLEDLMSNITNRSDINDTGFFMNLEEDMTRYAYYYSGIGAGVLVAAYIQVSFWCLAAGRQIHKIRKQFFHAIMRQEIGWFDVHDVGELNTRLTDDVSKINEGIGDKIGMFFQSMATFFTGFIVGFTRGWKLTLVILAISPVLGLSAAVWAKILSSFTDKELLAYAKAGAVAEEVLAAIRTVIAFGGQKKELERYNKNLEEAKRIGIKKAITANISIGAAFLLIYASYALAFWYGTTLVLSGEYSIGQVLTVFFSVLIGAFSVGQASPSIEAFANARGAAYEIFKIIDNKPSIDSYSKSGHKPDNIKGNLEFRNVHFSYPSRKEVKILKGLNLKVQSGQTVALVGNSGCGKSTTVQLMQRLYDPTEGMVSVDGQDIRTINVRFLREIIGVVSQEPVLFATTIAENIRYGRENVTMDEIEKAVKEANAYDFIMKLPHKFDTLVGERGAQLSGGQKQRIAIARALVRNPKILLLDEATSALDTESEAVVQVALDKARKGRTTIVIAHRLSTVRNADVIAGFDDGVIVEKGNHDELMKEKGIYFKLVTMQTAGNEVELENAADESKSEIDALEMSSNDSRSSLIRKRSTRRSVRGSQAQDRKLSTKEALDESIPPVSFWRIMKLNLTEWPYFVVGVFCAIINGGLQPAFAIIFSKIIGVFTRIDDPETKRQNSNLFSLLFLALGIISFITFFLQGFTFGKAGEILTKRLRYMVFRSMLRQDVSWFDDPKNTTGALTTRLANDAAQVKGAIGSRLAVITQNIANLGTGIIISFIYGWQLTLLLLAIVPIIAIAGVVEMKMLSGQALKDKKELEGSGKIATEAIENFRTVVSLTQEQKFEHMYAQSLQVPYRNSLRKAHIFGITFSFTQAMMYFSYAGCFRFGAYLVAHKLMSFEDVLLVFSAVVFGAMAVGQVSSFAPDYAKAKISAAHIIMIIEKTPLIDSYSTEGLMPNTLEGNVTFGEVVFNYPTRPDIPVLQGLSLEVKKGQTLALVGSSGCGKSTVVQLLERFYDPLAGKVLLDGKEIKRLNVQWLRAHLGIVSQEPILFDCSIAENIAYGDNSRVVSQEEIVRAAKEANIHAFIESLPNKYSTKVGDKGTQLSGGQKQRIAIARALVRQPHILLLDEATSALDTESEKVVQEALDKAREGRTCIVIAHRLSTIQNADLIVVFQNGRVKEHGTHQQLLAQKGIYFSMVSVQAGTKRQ
Experimental: (§1) Madin-Darby canine kidney (MDCK) II cells expressing cDNAs encoding human MDR1 (MDCKII-MDR1 cells) were obtained by TNO from the Netherlands Cancer Institute. […] Cells were counted using an automatic cell counter (Millipore, Bedford, MA, USA). […] The medium was refreshed after 48 h. It has been shown, that under these conditions the human transporter protein MDR1 localizes on the apical plasma membrane of the cells.
(§2) After three days of cell culture on Transwell, the MDCKII-MDR1 monolayers are expected to have developed a transepithelial electrical resistance (TEER) of approximately 70 Ωcm^2 higher than background (empty filter without cells). At the start of each study, TEER was measured to assess the integrity of the monolayers of MDCKII-MDR1 cells in culture medium using the Millicell-ERS epithelial voltohmmeter (Millipore). Monolayers with a TEER value less than 55 Ωcm^2 above background (empty filter) were excluded from the transport assay. […] Cell monolayers were also inspected with a microscope before starting the experiments.
(§3) Transcellular transport studies were performed as described previously with minor modifications.
(§4) After the integrity assessment, culture medium was removed from the filter inserts (apical compartment (A)). The inserts were washed once with warm (37 °C) HBSS, transferred to new 12-well plates which were preincubated with HBSS/HEPES for 18 h at 37 °C, to reduce non-specific binding to the plastic, and washed with warm HBSS. The MDR1-mediated apical to basolateral (A → B) transport in MDCKII-MDR1 cell monolayers was determined by addition of 0.65 mL of a tritiated compound in concentrations of 0.01, 1 and 50 µM to the apical compartment in triplicate. A volume of 1.8 mL of HBSS/HEPES was added to the basolateral compartment. To determine basolateral to apical (B → A) transport, 1.95 mL of a tritiated compound at concentrations of 0.01, 1 and 50 µM was added to the basolateral compartment and 0.5 ml of HBSS/HEPES to the apical compartment. A 150 µL aliquot of the apical (A → B) or basolateral (B → A) compartment was taken at the start of the experiment to measure the initial concentration and to calculate the recovery of radioactivity. […] Aliquots of the apical and basolateral samples (150 and 1600 µL for A → B and 400 and 150 µL for B → A, respectively) and samples of the initial concentration were mixed with 10 mL of liquid scintillant Ultima GoldTM (PerkinElmer Inc.). Radioactivity was determined by LSC on a Tri Carb 3100TR liquid scintillation counter using QuantaSmart^TM software (PerkinElmer Inc.) in which all counts were converted to disintegrations per minute (DPM) using tSIE/AEC (transformed spectral index of external standards coupled to automatic efficiency correction). Background values were measured for each sample sequence using liquid scintillant without test samples. Recovery of radioactivity was calculated as percentage of measured total radioactivity after the experiment versus initial radioactivity.
(§5) Subsequently, the effects of MDR1-inhibitors ketoconazole and tariquidar on the bidirectional transport of the tested tritiated compounds were examined. Stock solutions of the inhibitors ketoconazole (10 mM) and tariquidar (10 mM) were prepared in DMSO. […] These concentrations were based on IC50 values that are known to block P-gp completely.
(§6) A is the surface area of the filter insert (cm^2) and C0 the measured initial concentration, calculated from total DPM on the donor side at t = 0 min (DPM/L).
(§7) To determine the ER for the test compounds, the following equation was used:ER = Papp B → A/Papp A → B(2)

[2] = biological target: T2, P-gp (MDR1) (Homo sapiens, UniProt P08183); assay: as above; assay type: in vitro ADME; conditions: MDCK-MDR1; for efflux ratio at 2 h, 0.01 µM: human, read-out: ER 0.01 µM; for efflux ratio at 2 h, 1 µM / efflux ratio at 2 h, 50 µM: read-out: ER
T2 construct: host or cells: MDCKII (canine kidney) cells transfected with human MDR1 cDNA
T2 sequence (P08183 whole entry): as above
Experimental: as §1, §2, §3, §4, §5, §6, §7

[3] = Radioactive metabolites in plasma and brain by radio-TLC; assay type: in vivo; conditions: mice, 45 min p.i.
Experimental: Mice were injected with radiotracers (3.5 ± 1.6 MBq, 0.1 mL, [^18F]MC198 or [^18F]KE64) in the penile vein under isoflurane anesthesia. Injections were performed with the mice in the microPET camera (microPET Focus 220, Siemens Medical Solutions, Malvern, PA, USA), simultaneously starting a 30 min dynamic emission scan. After each emission scan, a transmission scan of 515 s with a ^57Co point source was performed to correct the emission data for attenuation and scatter. Mice were terminated by cervical dislocation. Several organs and tissues were excised, weighed and radioactivity was measured in a γ-counter (LKB Wallac, Turku, Finland). Radioactivity accumulation in the organs was expressed as SUV, using the following formula: [tissue activity concentration (MBq/g)]/[injected dose (MBq)/body weight (g)]. Metabolites in the terminal plasma and brain samples were determined using a radio-TLC method described elsewhere. TLC-plates were eluted with ethylacetate/methanol 9:1 v/v (Rf [^18F]MC198 = 0.45, Rf[^18F]KE64 = 0.62). PET data were reconstructed as described previously. Inveon Research Workplace software version 4.0 (Siemens, Erlangen, Germany) was used for data analysis. All frames were summed, and PET images were co-registered with an MRI template. […] Radioactivity concentrations were converted to SUV values and plotted as time-activity curves (TAC).

[4] = Log D7.4; assay type: physicochemical; conditions: pH 7.4, this study
[5] = test system: P-gp; assay: In vivo P-gp substrate classification from knockout mice and/or tariquidar-treated rats; conditions: for Substrate In Vivo: brain-to-plasma or AUC ratio in at least one strain; for P-gp substrate classification in vivo: cutoff value of 2 for brain-to-plasma and AUC ratios
[6] = test system: P-gp and/or Bcrp; assay: Brain uptake (microPET, biodistribution) in Mdr1a/b(−/−)Bcrp1(−/−) knockout versus wild-type mice; assay type: in vivo; conditions: Mdr1a/b(−/−)Bcrp1(−/−) vs wild-type mice; for Difference in whole brain time-activity curves (SUV) between knockout and wild-type: AUC from 0 to 30 min; for P-gp substrate behaviour in vivo: tracer concentrations
Text: All animal studies were in compliance with the local ethical guidelines. Protocols (DEC 6456C) were approved by the Institutional Animal Care and Use Committee of the University of Groningen. Male FVB wild type mice (33 ± 2 g, 11–12 weeks) and Mdr1a/b^(−/−)Bcrp1^(−/−) constitutive knockout mice (31 ± 3 g, 11–12 weeks) developed from the FVB line were purchased from Taconic (Hudson, NY, USA). After arrival, animals were housed individually and acclimatized for at least 7 days in the Central Animal Facility of the University Medical Center Groningen before experiments. Mice had access to food and water ad libitum and were kept under a 12 h light-dark cycle. During experiments, mice were anesthetized with 2% isoflurane in medical air and kept at a constant temperature using electronically controlled heating pads.
Mice were injected with radiotracers (3.5 ± 1.6 MBq, 0.1 mL, [^18F]MC198 or [^18F]KE64) in the penile vein under isoflurane anesthesia. Injections were performed with the mice in the microPET camera (microPET Focus 220, Siemens Medical Solutions, Malvern, PA, USA), simultaneously starting a 30 min dynamic emission scan. After each emission scan, a transmission scan of 515 s with a ^57Co point source was performed to correct the emission data for attenuation and scatter. Mice were terminated by cervical dislocation. Several organs and tissues were excised, weighed and radioactivity was measured in a γ-counter (LKB Wallac, Turku, Finland). Radioactivity accumulation in the organs was expressed as SUV, using the following formula: [tissue activity concentration (MBq/g)]/[injected dose (MBq)/body weight (g)]. Metabolites in the terminal plasma and brain samples were determined using a radio-TLC method described elsewhere. TLC-plates were eluted with ethylacetate/methanol 9:1 v/v (Rf [^18F]MC198 = 0.45, Rf[^18F]KE64 = 0.62). PET data were reconstructed as described previously. Inveon Research Workplace software version 4.0 (Siemens, Erlangen, Germany) was used for data analysis. All frames were summed, and PET images were co-registered with an MRI template. A whole brain volume of interest (VOI) based on the MRI template was generated. Radioactivity concentrations were converted to SUV values and plotted as time-activity curves (TAC).

[7] = biological target: T1, P-gp; assay: Calcein-AM inhibition assay in MDCKII-MDR1 cells; assay type: cell-based; conditions: non-radioactive compounds
Experimental: The calcein-AM experiment was performed in MDCKII-MDR1 cells according to methods described previously. Calcein cell accumulation in the absence and in the presence of test compounds (0,1, 1, 10, 30, 50 and 100 µM) was evaluated and the basal level of fluorescence was measured in untreated cells. EC50 values were determined by fitting the fluorescence increase (in %) versus log[dose].

[8] = design: method as in PMID 26043236; conditions: pH 7.4; cited from earlier work
[9] = after 5 min; cited from earlier work
[10] = test system: T3, P-gp (human MDR1); assay: Bidirectional transport of tritiated compounds in MDCKII-MDR1 cells; assay type: in vitro ADME; conditions: dog, MDCK-MDR1
T3 construct: host or cells: MDCKII (canine kidney) cells transfected with human MDR1 cDNA

COc1cc2c(cc1OC)CN(CCCCOc1ccc(-c3ccc(OCCF)cc3)cc1)CC2 [KE64, 2-(4-(4′-(2-Fluoroethoxy)biphenyl-4-yloxy)butyl)-6,7-dimethoxy-1,2,3,4-tetrahydroisoquinoline]
Papp values in both directions (A → B and B → A) ([1]; MDCKII-MDR1 cells, all Papp values): < 3 ×10⁻⁶ cm/s
efflux ratio at 2 h, 0.01 µM [2]: 1.9
Fraction of intact parent compound in plasma [3]: 26%
logD [4]: 3.2
Substrate In Vivo [5]: + (in vivo brain-to-plasma or AUC ratio > 2 in at least one strain)
P-gp substrate classification in vivo [5]: weak substrates
Difference in whole brain time-activity curves (SUV) between knockout and wild-type [6]: 1.6 fold
P-gp substrate behaviour in vivo [6]: moderate P-gp substrate in vivo
P-gp substrate behaviour in vivo ([6]; listed as [^18F]KE64): substrates for P-gp and/or Bcrp in vivo
EC50 [7]: 14 nM

COc1cc2c(cc1OC)CN(CC/C=C1\CCCc3c(OCCF)cccc31)CC2 [MC198, (E)-2-(3-(5-(2-Fluoroethoxy)-3,4-dihydronaphthalen-1(2H)-ylidene)propyl)-6,7-dimethoxy-1,2,3,4-tetra-hydroisoquinoline]
Substrate In Vitro ([1]; MDCKII-MDR1 cells): + (Definition as substrate (+) in vitro was ER > 2)
P-gp substrate behaviour in vitro ([1]; MDCKII-MDR1 cells): some affinity but very low capacity for P-gp mediated transport
ER 0.01 µM ([1]; MDCKII-MDR1 cells): above 2
efflux ratio at 2 h, 1 µM ([2]; dog, MDCKII-MDR1 cells, 1 µM): < 2
efflux ratio at 2 h, 50 µM ([2]; dog, MDCKII-MDR1 cells): < 2
efflux ratio at 2 h, 0.01 µM [2]: 2.1
Fraction of intact parent compound in plasma [3]: 34%
logD [4]: 2.3
Substrate In Vivo [5]: + (in vivo brain-to-plasma or AUC ratio > 2 in at least one strain)
P-gp substrate classification in vivo [5]: weak substrates
Difference in whole brain time-activity curves (SUV) between knockout and wild-type [6]: 1.7 fold
P-gp substrate behaviour in vivo [6]: substrates for P-gp and/or Bcrp in vivo
EC50 [7]: 270 nM

COc1cc2c(cc1OC)CN(Cc1ccc(-c3ccc(OCCF)cc3)cc1)CC2 [MC224]
Log D7.4 [8]: 2.9

COc1cc2c(cc1OC)CN(CCCC1CCCc3c(OCCF)cccc31)CC2 (stereo not shown) [MC225]
Log D7.4 [8]: 3.0
Substrate In Vivo [5]: + (in vivo brain-to-plasma or AUC ratio > 2 in at least one strain)

COc1ccc(CCN(CCF)CCC[C@](C#N)(c2ccc(OC)c(OC)c2)C(C)C)cc1OC [N-FeVer, (R)-N-[^18F]fluoroethylverapamil]
Parent compound, of total activity in plasma [9]: 46%
Substrate In Vitro ([1]; MDCKII-MDR1 cells): + (Definition as substrate (+) in vitro was ER > 2)
Recovery of radioactivity [1]: ≥ 76%
efflux ratio at 2 h, 0.01 µM [2]: 2.8
Log D7.4 [8]: 2.0
Substrate In Vivo [5]: + (in vivo brain-to-plasma or AUC ratio > 2 in at least one strain)
EC50 [7]: 1100 nM

COc1ccc([C@@](C#N)(CCCNCCc2ccc(OCCF)c(OC)c2)C(C)C)cc1OC [O-FeVer, (R)-O-[^18F]fluoroethylnorverapamil]
Parent compound, of total activity in plasma [9]: 20%
ER after inhibition with ketoconazole ([1]; MDCKII-MDR1 cells, 0.01 µM + ketoconazole 25 µM): higher than 2
Substrate In Vitro ([1]; MDCKII-MDR1 cells): + (Definition as substrate (+) in vitro was ER > 2)
P-gp substrate behaviour in vitro ([1]; MDCKII-MDR1 cells): behaved like a P-gp substrate
ER 0.01 µM ([1]; MDCKII-MDR1 cells): > 30
Recovery of radioactivity [1]: ≥ 76%
Papp A→B at 2 h, 0.01 µM ([2]; dog, MDCKII-MDR1 cells, 0.01 µM): < 2 ×10⁻⁶ cm/s
Papp A→B at 2 h, 1 µM ([2]; dog, MDCKII-MDR1 cells, 1 µM): < 2 ×10⁻⁶ cm/s
efflux ratio at 2 h, 1 µM ([2]; dog, MDCKII-MDR1 cells, 1 µM): > 30
efflux ratio at 2 h, 50 µM ([2]; dog, MDCKII-MDR1 cells): > 2
efflux ratio at 2 h, 0.01 µM [2]: 37
Log D7.4 [8]: 1.6
Substrate In Vivo [5]: + (in vivo brain-to-plasma or AUC ratio > 2 in at least one strain)
EC50 [7]: 2400 nM

C[C@H]1O[C@@H](O[C@H]2[C@@H](O)C[C@H](O[C@H]3[C@@H](O)C[C@H](O[C@H]4CC[C@@]5(C)[C@H](CC[C@@H]6[C@@H]5C[C@@H](O)[C@]5(C)[C@@H](C7=CC(=O)OC7)CC[C@]65O)C4)O[C@@H]3C)O[C@@H]2C)C[C@H](O)[C@@H]1O [[^3H]Digoxin, digoxin]
Papp A→B at 2 h, 0.05 µM [10]: < 1 ×10⁻⁶ cm/s
Papp B→A at 2 h, 0.05 µM [10]: > 15 ×10⁻⁶ cm/s
